Data taken from patent publication US9833497B2, “Human originated EGF domain proteins and use of the same” (CHENGDU SOURCEBIO LIMITED-LIABILITY COMPANY, priority 2013, dated 2017).

Experiments:
Assay type in all cases: cell-based
E. coli DH5α = assay: Antibacterial activity: MIC and growth curve against E. coli DH5α in 96-well plate; conditions: minimal inhibitory concentration against E. coli DH5α; 96-well plate, 5×10^5 CFU/mL, 37° C., judged after 8 h
Summary of the method: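 Log-phase bacteria (OD600 ~0.5) resuspended in LB at 5×10^5 CFU/mL, exposed to recombinant protein at 50, 25, 12.5 μg/mL final in triplicate, 37 °C shaking at 175 rpm. OD600 read every 30 min; MIC is lowest concentration showing no growth.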

E. coli BL21 = assay: MIC against Gram-negative bacteria: E. coli BL21; conditions: for MIC E. coli BL21: 96-well plate, 37° C., 10 h
Summary of the method: (§1)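 Growth inhibition by human EGF domain proteins was scored in LB liquid culture seeded at 5×10^5 CFU/mL. Protein was applied as a two-fold dilution series in triplicate, with shaking incubation at 37° C; MIC is the lowest concentration giving no growth.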

Pseudomonas aeruginosa = assay: MIC against Gram-negative bacteria: Pseudomonas aeruginosa; conditions: for MIC P. aeruginosa: 96-well plate, 37° C., 10 h
Summary of the method: as §1

Klebsiella pneumonia = assay: MIC against Gram-negative bacteria: Klebsiella pneumonia; conditions: for MIC K. pneumonia: 96-well plate, 37° C., 10 h
Summary of the method: as §1

Enterobacter cloacae = assay: MIC against Gram-negative bacteria: Enterobacter cloacae; conditions: for MIC E. cloacae: 96-well plate, 37° C., 10 h
Summary of the method: as §1

Aeromonas hydrophila = assay: MIC against Gram-negative bacteria: Aeromonas hydrophila; conditions: for MIC A. hydrophila: 96-well plate, 37° C., 10 h
Summary of the method: as §1

Citrobacter diversus = assay: MIC against Gram-negative bacteria: Citrobacter diversus; conditions: for MIC C. diversus: 96-well plate, 37° C., 10 h
Summary of the method: as §1

Moraxella catarrhalis = assay: MIC against Gram-negative bacteria: Moraxella catarrhalis; conditions: for MIC M. catarrhalis: 96-well plate, 37° C., 10 h
Summary of the method: as §1

Proteus mirabilis = assay: MIC against Gram-negative bacteria: Proteus mirabilis; conditions: for MIC P. mirabilis: 96-well plate, 37° C., 10 h
Summary of the method: as §1

Proteus vulgaris = assay: MIC against Gram-negative bacteria: Proteus vulgaris; conditions: for MIC P. vulgaris: 96-well plate, 37° C., 10 h
Summary of the method: as §1

Serratia marcescens = assay: MIC against Gram-negative bacteria: Serratia marcescens; conditions: for MIC S. marcescens: 96-well plate, 37° C., 10 h
Summary of the method: as §1

[1] = E. coli BL21, 10 h cultivation at 37° C.
[2] = P. aeruginosa, 10 h cultivation at 37° C.
[3] = K. pneumonia, 10 h cultivation at 37° C.
[4] = E. cloacae, 10 h cultivation at 37° C.
[5] = A. hydrophila, 10 h cultivation at 37° C.
[6] = C. diversus, 10 h cultivation at 37° C.
[7] = M. catarrhalis, 10 h cultivation at 37° C.
[8] = P. mirabilis, 10 h cultivation at 37° C.
[9] = P. vulgaris, 10 h cultivation at 37° C.
[10] = S. marcescens, 10 h cultivation at 37° C.

PRT984 (SNASCAAAPCLHGGSCRPAPLAPFFRCACAQGWTGPRCE; listed as Homo sapiens)
MIC (E. coli DH5α): 50 µg/mL | MIC (E. coli BL21; [1]): 12.5 µg/mL | MIC (Pseudomonas aeruginosa; [2]): 25 µg/mL | MIC (Klebsiella pneumonia; [3]): 50 µg/mL | MIC (Enterobacter cloacae; [4]): 25 µg/mL | MIC (Aeromonas hydrophila; [5]): 12.5 µg/mL | MIC (Citrobacter diversus; [6]): 12.5 µg/mL | MIC (Moraxella catarrhalis; [7]): 12.5 µg/mL | MIC (Proteus mirabilis; [8]): 50 µg/mL | MIC (Proteus vulgaris; [9]): 25 µg/mL | MIC (Serratia marcescens; [10]): 12.5 µg/mL

PRT779 (VSPCSRGYCDHGGQCQHLPSGPRCSCVSFSIYTAWGEHCE; listed as Homo sapiens)
MIC (E. coli DH5α): 12.5 µg/mL | MIC (μg/mL) E. coli BL21 (E. coli BL21; E. coli BL21, 10 h cultivation at 37° C., 5×10^5 CFU/mL): 12.5 µg/mL | MIC (μg/mL) P. aeruginosa (Pseudomonas aeruginosa; P. aeruginosa, 10 h cultivation at 37° C., 5×10^5 CFU/mL): 50 µg/mL | MIC (μg/mL) K. pneumonia (Klebsiella pneumonia; K. pneumonia, 10 h cultivation at 37° C., 5×10^5 CFU/mL): 12.5 µg/mL | MIC (μg/mL) E. cloacae (Enterobacter cloacae; E. cloacae, 10 h cultivation at 37° C., 5×10^5 CFU/mL): 50 µg/mL | MIC (μg/mL) A. hydrophila (Aeromonas hydrophila; A. hydrophila, 10 h cultivation at 37° C., 5×10^5 CFU/mL): 12.5 µg/mL | MIC (μg/mL) C. diversus (Citrobacter diversus; C. diversus, 10 h cultivation at 37° C., 5×10^5 CFU/mL): 50 µg/mL | MIC (μg/mL) M. catarrhalis (Moraxella catarrhalis; M. catarrhalis, 10 h cultivation at 37° C., 5×10^5 CFU/mL): 12.5 µg/mL | MIC (μg/mL) P. mirabilis (Proteus mirabilis; P. mirabilis, 10 h cultivation at 37° C., 5×10^5 CFU/mL): 50 µg/mL | MIC (μg/mL) P. vulgaris (Proteus vulgaris; P. vulgaris, 10 h cultivation at 37° C., 5×10^5 CFU/mL): 12.5 µg/mL | MIC (μg/mL) S. marcescens (Serratia marcescens; S. marcescens, 10 h cultivation at 37° C., 5×10^5 CFU/mL): 50 µg/mL

PRT646 (DIDECTQVQHLCSQGRCENTEGSFLCICPAGFMASEEGTNCI; listed as Homo sapiens)
MIC (E. coli DH5α): 12.5 µg/mL | MIC E. coli BL21 (E. coli BL21; 5×10^5 CFU/mL): 12.5 µg/mL | MIC P. aeruginosa (Pseudomonas aeruginosa; 5×10^5 CFU/mL): 12.5 µg/mL | MIC K. pneumonia (Klebsiella pneumonia; 5×10^5 CFU/mL): 12.5 µg/mL | MIC E. cloacae (Enterobacter cloacae; 5×10^5 CFU/mL): 12.5 µg/mL | MIC A. hydrophila (Aeromonas hydrophila; 5×10^5 CFU/mL): 25 µg/mL | MIC C. diversus (Citrobacter diversus; 5×10^5 CFU/mL): 50 µg/mL | MIC M. catarrhalis (Moraxella catarrhalis; 5×10^5 CFU/mL): 25 µg/mL | MIC P. mirabilis (Proteus mirabilis; 5×10^5 CFU/mL): 12.5 µg/mL | MIC P. vulgaris (Proteus vulgaris; 5×10^5 CFU/mL): 25 µg/mL | MIC S. marcescens (Serratia marcescens; 5×10^5 CFU/mL): 50 µg/mL

PRT652 (DLDECAFPGVCPSGVCTNTAGSFSCKDCDGGYRPSPLGDSCE; listed as Homo sapiens)
MIC (E. coli DH5α): 12.5 µg/mL | MIC E. coli BL21 (E. coli BL21; 5×10^5 CFU/mL): 25 µg/mL | MIC P. aeruginosa (Pseudomonas aeruginosa; 5×10^5 CFU/mL): 50 µg/mL | MIC K. pneumonia (Klebsiella pneumonia; 5×10^5 CFU/mL): 25 µg/mL | MIC E. cloacae (Enterobacter cloacae; 5×10^5 CFU/mL): 12.5 µg/mL | MIC A. hydrophila (Aeromonas hydrophila; 5×10^5 CFU/mL): 25 µg/mL | MIC C. diversus (Citrobacter diversus; 5×10^5 CFU/mL): 50 µg/mL | MIC M. catarrhalis (Moraxella catarrhalis; 5×10^5 CFU/mL): 25 µg/mL | MIC P. mirabilis (Proteus mirabilis; 5×10^5 CFU/mL): 12.5 µg/mL | MIC P. vulgaris (Proteus vulgaris; 5×10^5 CFU/mL): 25 µg/mL | MIC S. marcescens (Serratia marcescens; 5×10^5 CFU/mL): 50 µg/mL

PRT969 (LLSPCTPNPCEHGGRCESAPGQLPVCSCPQGWQGPRCQ; listed as Homo sapiens)
MIC (E. coli DH5α): 50 µg/mL | MIC (E. coli BL21; [1]): 12.5 µg/mL | MIC (Pseudomonas aeruginosa; [2]): 25 µg/mL | MIC (Klebsiella pneumonia; [3]): 50 µg/mL | MIC (Enterobacter cloacae; [4]): 25 µg/mL | MIC (Aeromonas hydrophila; [5]): 25 µg/mL | MIC (Citrobacter diversus; [6]): 12.5 µg/mL | MIC (Moraxella catarrhalis; [7]): 25 µg/mL | MIC (Proteus mirabilis; [8]): 50 µg/mL | MIC (Proteus vulgaris; [9]): 25 µg/mL | MIC (Serratia marcescens; [10]): 12.5 µg/mL

PRT1446 (FLSPCVDDCGPYGQCKLLRTHNYLYAACECKAGWRGWGCT; listed as Homo sapiens)
MIC (E. coli DH5α): 12.5 µg/mL | MIC against E. coli BL21 (E. coli BL21; E. coli BL21, 5×10^5 CFU/mL, 10 h cultivation at 37° C.): 12.5 µg/mL | MIC against P. aeruginosa (Pseudomonas aeruginosa; Pseudomonas aeruginosa, 5×10^5 CFU/mL, 10 h cultivation at 37° C.): 25 µg/mL | MIC against K. pneumonia (Klebsiella pneumonia; Klebsiella pneumonia, 5×10^5 CFU/mL, 10 h cultivation at 37° C.): 25 µg/mL | MIC against E. cloacae (Enterobacter cloacae; Enterobacter cloacae, 5×10^5 CFU/mL, 10 h cultivation at 37° C.): 12.5 µg/mL | MIC against A. hydrophila (Aeromonas hydrophila; Aeromonas hydrophila, 5×10^5 CFU/mL, 10 h cultivation at 37° C.): 25 µg/mL | MIC against C. diversus (Citrobacter diversus; Citrobacter diversus, 5×10^5 CFU/mL, 10 h cultivation at 37° C.): 12.5 µg/mL | MIC against M. catarrhalis (Moraxella catarrhalis; Moraxella catarrhalis, 5×10^5 CFU/mL, 10 h cultivation at 37° C.): 12.5 µg/mL | MIC against P. mirabilis (Proteus mirabilis; Proteus mirabilis, 5×10^5 CFU/mL, 10 h cultivation at 37° C.): 12.5 µg/mL | MIC against P. vulgaris (Proteus vulgaris; Proteus vulgaris, 5×10^5 CFU/mL, 10 h cultivation at 37° C.): 25 µg/mL | MIC against S. marcescens (Serratia marcescens; Serratia marcescens, 5×10^5 CFU/mL, 10 h cultivation at 37° C.): 12.5 µg/mL
